Assay results published in patent US12522569B2, “Substituted benzimidazole derivative and use thereof” (Chengdu FANXI Biopharma Co., Ltd., priority 2020, dated 2026).

Key:
Format in all cases: cell-based
hPPARα (LBD) = target: T1, hPPARα (LBD) (Homo sapiens, UniProt Q07869); test: GAL4-hPPARα (LBD) luciferase reporter transactivation in CV-1 cells; conditions: about 40 hours, relative to GW-590735 as 100%, read-out: PPAR activities EC50 PPARα
T1 construct: The receptor expression plasmid (pSG5-GAL4-hPPARα or γ or δ (LBD)); GAL4 (fusion partner); expressed in transfected cells; host or cells: CV-1 cells (ATCC)
T1 sequence (Q07869 239-466 limits assumed): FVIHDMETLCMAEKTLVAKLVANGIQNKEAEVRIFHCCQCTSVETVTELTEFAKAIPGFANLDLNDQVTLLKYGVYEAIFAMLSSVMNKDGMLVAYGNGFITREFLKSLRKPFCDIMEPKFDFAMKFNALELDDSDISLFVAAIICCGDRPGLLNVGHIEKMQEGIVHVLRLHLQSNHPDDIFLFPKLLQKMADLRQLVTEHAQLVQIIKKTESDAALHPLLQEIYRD
Protocol: (§1) The PPARδ activation effect of the compounds of the present invention was determined as follows (measurement of the PPAR activation effect of the test compounds (compounds in the examples)).
(§2) The receptor expression plasmid (pSG5-GAL4-hPPARα or γ or δ (LBD)), luciferase expression plasmid (pUC8-MH100×4-TK-Luc) and β-galactosidase expression plasmid (pCMX-β-GAL) (Kliewer, S. A. et. al., (1992) Nature, 358:771-774) were introduced into CV-1 cells (ATCC).
(§3) After gene introduction using the lipofection reagent DMRIE-C or Lipofectamin 2000 (Invitrogen), the cells were cultured in the presence of the test compound for 42 hours. Lysed cells were tested for luciferase activity and β-GAL activity.
(§4) The following methods were used to determine the PPAR activation effect of the tested compounds (compounds in the examples)
(§5) Receptor expression plasmid (pSG5-GAL4-hPPARα, 7 or 6 (LBD)), luciferase expression plasmid (pUC8-MH100×4-TK-Luc) and β-Galactosidase expression plasmid (pCMX-β-GAL) (Kilewer, S. A. et. al., (1992) Nature, 358: 771-774) were introduced into CV-1 cells (ATCC). After gene introduction using a lipofection reagent (Lipofectamine 2000 (Invitrogen)), the cells were cultured in the presence of the test compounds for about 40 hours.

hPPARδ (LBD) = target: T2, hPPARδ (LBD) (Homo sapiens, UniProt Q03181); test: GAL4-hPPARδ (LBD) luciferase reporter transactivation in CV-1 cells; conditions: about 40 hours, relative to GW-501516 as 100%, read-out: PPAR activities EC50 PPARδ
T2 construct: The receptor expression plasmid (pSG5-GAL4-hPPARα or γ or δ (LBD)); GAL4 (fusion partner); expressed in transfected cells; host or cells: CV-1 cells (ATCC)
T2 sequence (Q03181 211-439 limits assumed): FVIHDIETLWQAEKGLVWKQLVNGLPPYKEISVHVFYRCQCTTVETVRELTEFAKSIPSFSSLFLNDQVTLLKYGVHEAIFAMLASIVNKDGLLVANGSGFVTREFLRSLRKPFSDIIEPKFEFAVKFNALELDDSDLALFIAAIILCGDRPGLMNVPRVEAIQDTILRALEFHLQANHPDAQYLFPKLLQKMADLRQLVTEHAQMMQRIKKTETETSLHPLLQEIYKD
Protocol: as §1, §2, §3, §4, §5

hPPARγ (LBD) = target: T3, hPPARγ (LBD) (Homo sapiens, UniProt P37231); test: GAL4-hPPARγ (LBD) luciferase reporter transactivation in CV-1 cells; conditions: about 40 hours, relative to Rosiglitazone as 100%, read-out: PPAR activities EC50 PPARγ
T3 construct: The receptor expression plasmid (pSG5-GAL4-hPPARα or γ or δ (LBD)); GAL4 (fusion partner); expressed in transfected cells; host or cells: CV-1 cells (ATCC)
T3 sequence (P37231 238-503 limits assumed): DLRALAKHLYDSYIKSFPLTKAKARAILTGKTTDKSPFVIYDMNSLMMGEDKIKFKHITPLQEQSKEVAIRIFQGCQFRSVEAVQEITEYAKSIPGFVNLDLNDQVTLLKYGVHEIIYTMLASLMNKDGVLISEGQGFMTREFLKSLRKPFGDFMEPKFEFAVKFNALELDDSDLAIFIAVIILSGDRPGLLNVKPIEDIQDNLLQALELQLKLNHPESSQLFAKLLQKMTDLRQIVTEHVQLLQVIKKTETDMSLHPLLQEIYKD
Protocol: as §1, §2, §3, §4, §5

Row | SMILES | EC50 (hPPARα (LBD)) [nM] | EC50 (hPPARδ (LBD)) [nM] | EC50 (hPPARγ (LBD)) [nM]
1 | CCc1cc(COc2ccccc2Cn2c(CN3CCCC3)nc3cc(Br)ccc32)ccc1CCC(=O)O [Compound 14] | 3420 | 142 | 672
2 | CCc1cc(COc2ccccc2Cn2c(CCCN3CCCC3)nc3cc(Br)ccc32)ccc1CCC(=O)O [Compound 17, 3-(4-((2-((5-Bromo-2-(3-(pyrrolidin-1-yl)propyl)-1H-benzo[d]imidazol-1-yl)methyl)-phenoxy)methyl)-2-ethylphenyl)propanoic acid] | 3050 | 41800 | 15400
3 | CCc1cc(COc2ccccc2Cn2c(CCc3ccc(Cl)cc3Cl)nc3cc(Br)ccc32)ccc1CCC(=O)O [Compound 3, 3-(4-((2-((5-Bromo-2-(2.4-dichlorophenethyl)-1H-benzo[d]imidazol-1-yl)methyl)phenoxy)methyl)-2-ethylphenyl)propanoic acid] | 104 | 36.5 | 186

Second part, the compound after the results:

Row | EC50 (hPPARα (LBD)) [nM] | EC50 (hPPARδ (LBD)) [nM] | EC50 (hPPARγ (LBD)) [nM] | SMILES
4 | 2110 | 6560 | 9110 | CCc1cc(COc2ccccc2Cn2c(CCCN3CCCC3)nc3cc(Br)ccc32)ccc1OCC(=O)O [Compound 15, 2-(4-((2-((5-Bromo-2-(3-(pyrrolidin-1-yl)propyl)-1H-benzo[d]imidazol-1-yl)methyl)phenoxy)methyl)-2-ethylphenoxy)acetic acid]
5 | 3990 | 803 | 2040 | CCc1cc(COc2ccccc2Cn2c(CN3CCCC3)nc3cc(Br)ccc32)ccc1OCC(=O)O [Compound 50]
